Assays:
Assay type in all cases: cell-based, human
SBcl2 = assay: Tumor spheroid growth, SBcl2 melanoma; conditions: p < 0.001
Procedure: (§1) Tumor self-renewing and anchorage-independent spheroids were obtained by culturing breast cancer cells MCF7, Hs587T and MDA231; melanoma cells SBcl2 and FM6; human breast cancer stem cells and pancreatic cancer stem cells in stem cell-selective conditions according to the manufacturer’s instructions (StemCell Technologies, Tukwila, WA). Briefly, cancer and cancer stem cells were propagated in 6-well ultra-low adherent plates (Corning) in Complete MammoCult Medium (Human) by adding 50 mL of MammoCult Proliferation Supplements to 450 mL of MammoCult Basal Medium (StemCell Technologies). The following were added to obtain Complete MammoCult Medium: 4 ug/mL Heparin (StemCell Technologies), 0.48 μg/mL hydrocortisone (StemCell Technologies), 200 U penicillin/ml; and 200 μg streptomycin/ml (Invitrogen).

MCF 10C cells = assay: Tumor spheroid formation, MCF 10C; conditions: spheroids enumerated at 10 days
Procedure: as §1
Figure 5 Effects of PKCδ inhibitors on growth and spheroid formation in non-transformed and transformed human breast epithelial cells. […] After 24, 48 and 72 hr of exposure, cell mass was evaluated by MTT assay. […] (C) MCF 10A and MCF 10C cells were plated at 10,000 cells per well in tumor spheroid media, and spheroid formation was assessed at days 10 and 21. […]

MCF 10A cells = assay: Cell proliferation (MTT) of non-transformed breast epithelial cells; conditions: for concentration at which effect on MCF 10A cell number reached significance: 48 hr, p < 0.05; for IC50: Homo sapiens, MCF-10A, 72 hr, read-out: IC50 for the parental MCF 10A cells
Procedure: (§2) Cell proliferation was assessed using an MTT [3-(4,5-dimethylthiazol-2-yl)-2,5-diphenyltetrazolium bromide] assay (Roche, Mannheim, Germany). The number of viable cells growing in a single well on a 96-well microtiter plate was estimated by adding 10 μl of MTT solution (5 mg/ml in phosphate-buffered saline [PBS]). After 4 h of incubation at 37°C, the stain was diluted with 100 μl of dimethyl sulfoxide. The optical densities were quantified at a test wavelength of 570 nm and a reference wavelength of 690 nm on a multiwell spectrophotometer. In some assays, MTS was used as substrate (Promega, Madison, WI), and the absorbance of the product was monitored at 490 nm. Cell enumeration was carried out using a hemocytometer, and viable cells identified by trypan blue exclusion.
Figure 5 Effects of PKCδ inhibitors on growth and spheroid formation in non-transformed and transformed human breast epithelial cells. MCF 10A cells and cells from the derived tumorigenic line MCF 10C (also called M3), were grown to 80% confluence in 96-well plates and then exposed to rottlerin at concentrations ranging from 1 to 20 μM (A) or to BJE6-106 at concentrations ranging from 0.1 to 20 μM (B). The corresponding equivalent volume of solvent (DMSO) was used as a vehicle control (Vehicle). After 24, 48 and 72 hr of exposure, cell mass was evaluated by MTT assay. Control (vehicle) values were normalized to 100%. Error bars represent SEM. p values for comparison between vehicle and PKCδ inhibitors on MCF 10A cell number only reached significance (p < 0.05) at 48 hr at 20 μM for rottlerin, and at 1 μM for BJE6-106. In contrast, significant effects of the inhibitors on the MCF 10C cells were observed as early as 24 hr for rottlerin (at 5 μM) and for BJE6-106 (at 0.1 μM). (C) MCF 10A and MCF 10C cells were plated at 10,000 cells per well in tumor spheroid media, and spheroid formation was assessed at days 10 and 21. Representative photographs are shown. (D) MCF 10C cells were plated at 10,000 cells per well in tumor spheroid media, in the presence of rottlerin (5 μM), or BJE6-106 (1 μM or 5 μM), or DMSO vehicle (Control). Tumor spheroids were enumerated at 10 days. Representative photographs are shown. (E) Spheroid numbers were normalized to the number of spheroids in the control cultures (assigned an arbitrary value of 100%) and plotted. Error bars represent SEM. p values for comparison between vehicle and rottlerin or BJE6-106 effects on spheroid number were significant (p < 0.001).

MCF7 cells = assay: Cell proliferation (MTT) of adherent MCF7 cells; conditions: for concentration at which effect on cell number reached significance: MCF7, MTT, 24 hr, p ≤ 0.02; for concentration required to repress growth by more than 80%: MCF7 adherent population, MTT
Procedure: as §2
Figure 4 Effects of PKCδ inhibitors on human tumor cell spheroid formation. (A) Hs578T and MCF7 were plated under adherent or non-adherent conditions. Tumor spheroids and adherent cells were collected at 96 hr, stained for CD24 and CD44, and analyzed by flow cytometry. (B) Hs578T, MCF7, breast cancer stem cells (BCSC) and pancreatic cancer stem cells (PCSC) were plated in tumor spheroid media, in the presence of rottlerin, BJE6-106, or DMSO (Control). Tumor spheroids were enumerated at 96 hr, and normalized to the number of spheroids in the control cultures (assigned an arbitrary value of 100%). p values for comparison between vehicle and rottlerin or BJE6-106 effects were significant (p≤0.001). Photographs are of representative areas of the culture plates. (C) MCF7 cells were exposed BJE6-106 or to rottlerin at the indicated concentrations. The corresponding equivalent volume of solvent (DMSO) was used as a vehicle control (Vehicle). After 24, 48 and 72 hr of exposure, cell mass was evaluated by MTT assay. Control values were normalized to 100%. p values for comparison between vehicle and rottlerin effects on cell number at 24 hr reached significance at 5 μM, and for BJE6-106 at 0.5 μM (p ≤ 0.02), and were significant for all concentrations tested at 48 and 72 hr time points. (D) Hs578T cells were exposed to vehicle or BJE6-106 (1 μM) for 6, 12, 24, 48 or 96 hr. Viable cells were enumerated and re-plated in media without BJE6-206, and spheroid numbers were quantitated 96 hr later. p values for comparison between vehicle and BJE6-106 effects on spheroid number were significant after 6 hr of exposure (p≤0.02), and remained significant at all time points thereafter. Error bars represent SEM.

Structure (SMILES)	inhibition of tumor spheroid growth, SBcl2 (SBcl2; BJE6-106 at 0.5-1.0 μM)	effect on growth of MCF 10C spheroids (MCF 10C cells; BJE6-106 at 1 μM)	concentration at which effect on MCF 10A cell number reached significance (MCF 10A cells)	IC50 (MCF 10A cells)	concentration at which effect on cell number reached significance (MCF7 cells)	concentration required to repress growth by more than 80% (MCF7 cells)	inhibition at 10 µM (SBcl2; Homo sapiens, SBcl2, rottlerin at 10 μM)	effect on growth of MCF 10C spheroids (MCF 10C cells; rottlerin at 10 μM)
CC1(C)C=Cc2cc(CCn3c4ccccc4c4ccccc43)cc(C=O)c2O1 [BJE6-106, 6-(2-(9H-carbazol-9-yl)ethyl)-2,2-dimethyl-2H-chromene-8-carbaldehyde]	> 99.5%	efficiently inhibited	1 µM	> 20 µM	0.5 µM	> 1 µM		
CC(=O)c1c(O)c(C)c(O)c(Cc2c(O)c3c(c(C(=O)/C=C/c4ccccc4)c2O)OC(C)(C)C=C3)c1O [rottlerin, Rottlerin, reference compound]			20 µM	> 20 µM	5 µM	> 10 µM	> 99.5%	efficiently inhibited
